From PubChem BioAssay (NCI)
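48-hour exposure; five concentrations; linearly interpolated endpoints. Abbreviation: GI50, concentration required for 50% inhibition of growth. The concentration for full growth arrest is given as TGI.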

Columns and labels:
Assay in all cases: NCI-60 cell line screen, 48 h
HCT-15 colon = tested on: HCT-15 colon
M14 melanoma = tested on: M14 melanoma
NCI-H23 lung = tested on: NCI-H23 lung
SK-OV-3 ovarian = tested on: SK-OV-3 ovarian
K-562 leukemia = tested on: K-562 leukemia
CCRF-CEM leukemia = tested on: CCRF-CEM leukemia
COLO 205 colon = tested on: COLO 205 colon
HS 578T breast = tested on: HS 578T breast
MDA-MB-435 = tested on: MDA-MB-435
PC-3 prostate = tested on: PC-3 prostate

| Structure (SMILES) | TGI (HCT-15 colon) | TGI (M14 melanoma) | TGI (NCI-H23 lung) | TGI (SK-OV-3 ovarian) | TGI (K-562 leukemia) | TGI (CCRF-CEM leukemia) | TGI (COLO 205 colon) | GI50 (HS 578T breast) | TGI (HS 578T breast) | GI50 (HCT-15 colon) | GI50 (COLO 205 colon) | GI50 (M14 melanoma) | GI50 (MDA-MB-435) | TGI (MDA-MB-435) | GI50 (NCI-H23 lung) | GI50 (PC-3 prostate) | TGI (PC-3 prostate) | GI50 (K-562 leukemia) | GI50 (CCRF-CEM leukemia) | GI50 (SK-OV-3 ovarian) |
| --- | --- | --- | --- | --- | --- | --- | --- | --- | --- | --- | --- | --- | --- | --- | --- | --- | --- | --- | --- | --- |
| O=c1cccccc1[O-].O=c1cccccc1[O-].O=c1cccccc1[O-].[La+3] | > 100 µM | 53.8 µM | > 100 µM | 86.9 µM | > 100 µM | 51.3 µM |  |  |  |  |  |  |  |  |  |  |  |  |  |  |
| N#Cc1cccc(/C=N/N=C(\N)NO)c1 | > 100 µM | > 100 µM | > 100 µM | > 100 µM | > 100 µM | > 100 µM | > 100 µM |  |  |  |  |  |  |  |  |  |  |  |  |  |
| COc1cc(-c2nc(SCCC(C)C)nc(Nc3ccc(S(N)(=O)=O)cc3)c2C#N)cc(OC)c1OC | > 100 µM | 24.7 µM | 12.5 µM |  | > 100 µM | > 100 µM | 5.08 µM | 2.21 µM | 7.77 µM | 2.4 µM | 2.06 µM | 2.9 µM | 3.15 µM | > 100 µM | 2.92 µM | 2.72 µM | > 100 µM | 2.73 µM | 2.88 µM |  |
| C[N+]1=C(/C=C\C=C\c2ccccc2)C(C)(C)c2ccccc21 | 11.8 µM | 7.71 µM | 11.5 µM | 23.9 µM | 7.28 µM | 7.76 µM | 2.26 µM | 4.6 µM | 22.4 µM | 2.27 µM | 0.686 µM | 2.14 µM | 2.01 µM | 5.17 µM | 2.83 µM | 3.54 µM | 14.9 µM | 0.442 µM | 2.36 µM | 11.3 µM |
| COc1ccc(C2ON(c3cccc(C)n3)CC=C2C)cc1 (centres undefined) | > 100 µM | > 100 µM | > 100 µM | > 100 µM | > 100 µM | > 100 µM | > 100 µM |  |  |  |  |  |  |  |  |  |  |  |  |  |
| CC(=O)OCC1OC(n2c(-c3ccc(C)cc3)cc(-c3ccccc3)c(C#N)c2=O)C(OC(C)=O)C(OC(C)=O)C1OC(C)=O (centres undefined) | > 100 µM | > 100 µM | > 100 µM | > 100 µM | > 100 µM | > 100 µM | > 100 µM |  |  |  |  |  |  |  |  |  |  |  |  |  |
| CCOC(=O)c1[nH]c(COC(C)=O)c2c1CCCCCCCCCC2 | > 100 µM | > 100 µM | > 100 µM | > 100 µM | > 100 µM | > 100 µM | > 100 µM |  |  |  |  |  |  |  |  |  |  |  |  |  |
| CCOc1ccc2nc(NC(=O)C(=O)C(c3cnc4ccccc4n3)[N+](=O)[O-])sc2c1 (centres undefined) | > 100 µM | > 100 µM | > 100 µM | > 100 µM | > 100 µM | > 100 µM |  |  | > 100 µM |  |  |  |  |  |  |  | > 100 µM |  |  |  |
| CN(C)c1ccc(/C=c2\sc3nc4ccccc4n3c2=O)cc1 | > 100 µM | > 100 µM | > 100 µM |  | > 100 µM |  | > 100 µM |  |  |  |  |  |  |  |  |  |  |  |  |  |
| Cc1ccc(Cl)cc1NC(=O)c1sc2nc3c(cc2c1N)C(=O)CCC3 | > 100 µM | > 100 µM |  | > 100 µM | > 100 µM |  | > 100 µM | 2.34 µM | > 100 µM | 4.79 µM | 4.41 µM | 6.31 µM | 1.1 µM | 5.04 µM |  | 4.34 µM | > 100 µM | 3.48 µM |  | 5.26 µM |
| CCCSS[C@H]1NC(=O)[C@H]1NC(=O)COc1ccccc1 | 24.9 µM | 24.4 µM | 31.9 µM | > 100 µM | 28.6 µM | 19.1 µM | 25 µM |  |  |  |  |  |  |  |  |  |  |  |  |  |
| CCN1CCN(CC(=O)N2c3cccc4cccc(c34)N(C(=O)CN3CCN(CC)CC3)C2c2cn(-c3ccccc3)nc2-c2cccc([N+](=O)[O-])c2)CC1 | 2.98 µM | 3.46 µM | 3.59 µM | 3.74 µM |  | 3.51 µM | 3.39 µM | 1.81 µM | 4.17 µM | 1.46 µM | 1.72 µM | 1.69 µM | 1.86 µM | 3.54 µM | 1.81 µM | 1.48 µM | 3.14 µM |  | 1.15 µM | 1.9 µM |
| COC(=O)Nc1nc2ccc(Br)cc2[nH]1 | > 100 µM | > 100 µM | 80.7 µM | 67.9 µM | > 100 µM | > 100 µM | > 100 µM |  |  |  |  |  |  |  |  |  |  |  |  |  |
| CCOC(=O)c1c2c(n3ccccc13)C(=O)c1ncccc1C2=O | 12.8 µM | 2.94 µM | 5.75 µM | 22.9 µM | > 100 µM | > 100 µM | 4.93 µM |  |  | 0.024 µM | 1.65 µM | 0.0354 µM | 0.194 µM | 16.4 µM | 0.0617 µM | 0.361 µM | 14.9 µM | 0.0745 µM | 3.06 µM | 0.0683 µM |
| Clc1ccc(C(n2cc(Br)cn2)n2cc(Br)cn2)cc1 | 33.2 µM | 35.2 µM | 42.6 µM | 60.9 µM | 53.6 µM | 60.9 µM | 33.8 µM |  |  |  |  |  |  |  |  |  |  |  |  |  |
| Cn1cc2ccccc2c1-c1nc(F)nc(OCC(=O)[C@H]2CCC3[C@@H]4CCC5=CC(=O)CC[C@]5(C)C4[C@@H](O)C[C@@]32C)n1 (some centres undefined) | 20.7 µM | 44.7 µM | 16.5 µM | 37.3 µM | 8.94 µM | 27.5 µM | 40.1 µM |  |  |  |  |  |  |  |  |  |  |  |  |  |
| CN1C(=O)C2C(C1=O)C1(O)c3ccccc3C2(N)c2ccccc21 (centres undefined) | > 100 µM | > 100 µM | > 100 µM | > 100 µM | > 100 µM | > 100 µM | > 100 µM |  |  |  |  |  |  |  |  |  |  |  |  |  |
| N#CC1CC2(CCN1C(=O)c1ccccc1)OCCO2 (centres undefined) | > 100 µM | > 100 µM | > 100 µM | > 100 µM | > 100 µM | > 100 µM | > 100 µM |  |  |  |  |  |  |  |  |  |  |  |  |  |
| NC(N)=NS(=O)(=O)c1ccc(NCCc2c3ccccc3nc3ccccc23)cc1 | > 100 µM | > 100 µM |  | > 100 µM | > 100 µM | > 100 µM | > 100 µM |  |  |  |  |  |  |  |  |  |  |  |  |  |
| COc1cc2c(cc1OC)C13CCN4CC5CCOC6CC(=O)N2C1C6C5CC43 (centres undefined) | > 100 µM | > 100 µM | > 100 µM | > 100 µM |  | > 100 µM | > 100 µM |  | > 100 µM |  |  |  |  | > 100 µM |  |  | > 100 µM |  |  |  |
